PubChem BioAssay (NCI)
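Values below derive from 48-hour exposures of cells grown in 96-well plates, with endpoints linearly interpolated between the two concentrations bracketing the appropriate inhibition level. GI50: concentration for 50% inhibition of growth. The concentration for full growth arrest is given as TGI.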

Assays:
Assay in all cases: inhibition of tumour cell growth, NCI panel, 48 h
COLO 205 colon = system: COLO 205 colon
M14 melanoma = system: M14 melanoma
DU-145 prostate = system: DU-145 prostate
OVCAR-8 ovarian = system: OVCAR-8 ovarian
SK-MEL-2 melanoma = system: SK-MEL-2 melanoma
NCI/ADR-RES ovarian = system: NCI/ADR-RES ovarian
HOP-92 NSCLC = system: HOP-92 NSCLC
HOP-62 NSCLC = system: HOP-62 NSCLC
A549 NSCLC = system: A549 NSCLC
T-47D breast = system: T-47D breast

SMILES | GI50 (COLO 205 colon) [µM] | TGI (COLO 205 colon) [µM] | GI50 (M14 melanoma) [µM] | TGI (M14 melanoma) [µM] | GI50 (DU-145 prostate) [µM] | TGI (DU-145 prostate) [µM] | GI50 (OVCAR-8 ovarian) [µM] | TGI (OVCAR-8 ovarian) [µM] | GI50 (SK-MEL-2 melanoma) [µM] | TGI (SK-MEL-2 melanoma) [µM] | GI50 (NCI/ADR-RES ovarian) [µM] | TGI (NCI/ADR-RES ovarian) [µM] | GI50 (HOP-92 NSCLC) [µM] | TGI (HOP-92 NSCLC) [µM] | GI50 (HOP-62 NSCLC) [µM] | TGI (HOP-62 NSCLC) [µM] | GI50 (A549 NSCLC) [µM] | TGI (A549 NSCLC) [µM] | TGI (T-47D breast) [µM] | GI50 (T-47D breast) [µM]
O=C1c2ccccc2-c2c1c1ccc([N+](=O)[O-])cc1c(=O)n2CCCn1ccnc1 | 4.57 | > 38.5 | 0.106 | 0.453 | < 0.0152 | 0.0542 | 0.118 | 4.78 | 1.06 | 3.27 | 0.0465 | 0.366 | 2.18 | 29.9 | 0.173 | 0.708 | 3.17 | 21.9 | > 33.3 | –
COc1cc2c(cc1OC)-c1ncc3cc(OC)c(OC)c(OC)c3c1C2 | 27.7 | > 100 | 45.2 | > 100 | 21.7 | > 100 | 12 | 43.1 | 21.7 | 73.9 | 19.1 | 89.2 | 15.3 | > 100 | 34.8 | 86.7 | 32.1 | > 100 | > 100 | > 100
Cc1ccc2c(c1)-c1oc(=O)c(-c3cc4ccccc4oc3=O)cc1C(O)O2 (centres undefined) | 18.7 | 41.7 | 21.4 | 40.6 | 11.6 | 23.8 | 19.9 | 62.5 | 16.9 | 42.1 | 23.2 | 52.3 | 17.3 | 40.5 | 22.9 | 41.4 | 29.9 | > 100 | 41.7 | 21.3
CN1CCN(Cc2ccc(NC(=O)c3cccc(C#Cc4c(N)ncc5ccc(F)cc45)c3)cc2C(F)(F)F)CC1 | 0.737 | 1.66 | 0.463 | 1.24 | 0.838 | 1.59 | 1.03 | 2.56 | 0.923 | 2.09 | 1.02 | 2.55 | 0.349 | 1.3 | 0.795 | 1.65 | 0.877 | 1.77 | 2.65 | 1.05
O=S(=O)(NCCNc1cc(-c2cn(-c3ccccc3)nc2-c2cccc(O)c2)ccn1)c1ccc(Br)cc1 | 1.86 | 3.81 | 2.02 | 5.04 | 3.02 | 11.6 | 3.47 | 12.6 | 2.3 | 4.79 | 3.14 | 12.5 | 2 | 5.06 | 2.35 | 5.99 | 3.6 | 15 | 7.71 | 2.22
CNC(=S)N(C1CCCCC1)C1CCCCC1 | – | > 100 | – | > 100 | – | > 100 | – | > 100 | – | > 100 | – | > 100 | – | > 100 | – | > 100 | – | > 100 | > 100 | –
CCN(CC)CCOc1ccc(Cc2ccccc2)cc1 | 16.1 | 31.5 | 17.3 | 34.6 | 32.7 | > 100 | 60.6 | > 100 | 13.9 | 50.5 | 26.2 | > 100 | 5.61 | 51.1 | 32.4 | > 100 | 49.8 | > 100 | > 100 | 25.5
O=C(O)CNC(=O)C1NC(C(F)(F)F)(C(F)(F)F)OC1(C(F)(F)F)C(F)(F)F (centres undefined) | – | > 100 | – | > 100 | – | > 100 | – | > 100 | – | > 100 | – | > 100 | – | > 100 | – | > 100 | – | > 100 | > 100 | –
COc1ccc(C(=O)c2cc(C)c(OC)c(C)c2)c(OC)c1N(C(=O)CCl)C(=O)CCl | 0.104 | 17.6 | 0.0365 | 0.531 | 0.0388 | 16.8 | 0.062 | > 92.4 | 0.0522 | 19.7 | 0.0311 | 1.48 | 0.195 | 30.9 | 0.0546 | 25 | 0.0834 | > 100 | 44.4 | 0.0445
COC1C(O)CC(OC2CC(OC3CC(O[C@@H]4C(=O)c5c(cc6cc(OC7CC(OC8CC(O)C(O)C(C)O8)C(O)C(C)O7)c(C)c(O)c6c5O)CC4[C@H](OC)[C@@H](O)C(C)=O)OC(C)C3O)OC(C)C2O)OC1C (some centres undefined) | 0.0113 | 0.0639 | 0.0202 | 3.91 | 0.0127 | > 33.3 | 0.0217 | > 33.3 | 0.0167 | 0.0492 | > 28.2 | > 33.3 | 0.032 | > 33.3 | 0.0171 | 0.154 | 0.00797 | > 33.3 | 0.307 | 0.0124
CCN(CC)c1ccc(/C=N/NC(=O)c2ccccc2Nc2ccnc(C(F)(F)F)c2)c(O)c1 | 0.212 | > 100 | 0.175 | 1.19 | 0.134 | > 100 | 0.22 | > 100 | 1.29 | 97.9 | 0.273 | 14 | 0.428 | > 100 | 0.121 | 5.35 | 0.235 | > 100 | > 100 | 0.471
C=C(C)[C@@H]1CC[C@]2(CN)CC[C@]3(C)[C@H](CC[C@@H]4[C@@]5(C)CCC(N)[C@@](C)(CO)[C@@H]5CC[C@]43C)[C@@H]12 (some centres undefined) | 1.75 | 3.38 | 1.81 | 3.32 | 1.66 | 3.17 | 1.86 | 3.57 | 1.89 | 3.44 | 2.6 | 6.59 | 1.42 | 2.81 | 1.78 | 3.24 | 1.73 | 3.27 | 3.84 | 1.93
